The values below come from BindingDB's records for doi:10.1021/jm9904102 (Abbott Laboratories, 2000).

The assay can be described thus: Inhibition of calcium ionophore (A-23187)-stimulated LTB4 formation in human neutrophil assay.
Usually IC50 stands for the concentration needed to halve the response being measured. Take `O=C(O)/C=N/OC(CC1CCCCC1)c1ccc(OCc2ccc3ccccc3n2)cc1` (stereo not drawn) [{2-Cyclohexyl-1-[4-(quinolin-2-ylmethoxy)-phenyl]-ethoxyimino}-acetic acid]: the IC50 is 27 nM. `C/C(=N\O[C@H](c1ccc(OCc2ccc3ccccc3n2)cc1)C1CCCCC1)C(=O)O` [listing 1 of 2 here]: the IC50 came out at 8 nM. With `O=C(O)/C=N/OC(c1ccc(CCc2ccc3ccccc3n2)cc1)C1CCCCC1` (stereo not drawn) [{Cyclohexyl-[4-(2-quinolin-2-yl-ethyl)-phenyl]-methoxyimino}-acetic acid (0.25H2O)] the figure was 290 nM.

For the molecule `O=C(O)/C=N/OC(c1ccc2cc(OCc3ccc4ccccc4n3)ccc2c1)C1CCCCC1` (stereo not drawn) [{Cyclohexyl-[6-(quinolin-2-ylmethoxy)-naphthalen-2-yl]-methoxyimino}-acetic acid], the IC50 turned out to be 56 nM. With `CC(C)(C)Sc1c(CC(C)(C)C(=O)O)n(Cc2ccc(Cl)cc2)c2ccc(OCc3ccc4ccccc4n3)cc12` [MK-591] the figure was 8 nM; with `CC(C)(C)SC/C(=N\OC(c1ccc(OCc2ccc3ccccc3n2)cc1)C1CCCCC1)C(=O)O` (stereo not drawn) [3-tert-Butylsulfanyl-2-{cyclohexyl-[4-(quinolin-2-ylmethoxy)-phenyl]-methoxyimino}-propionic acid], 120 nM. With `O=C(O)/C=N/OC(c1ccc(/C=C/c2ccc3ccccc3n2)cc1)C1CCCCC1` (stereo not drawn) [{Cyclohexyl-[4-(2-quinolin-2-yl-vinyl)-phenyl]-methoxyimino}-acetic acid (0.25H2O)] the figure was 91 nM; with `C/C(=N\OC(CCCc1ccc(F)cc1)c1ccc(OCc2ccc3ccccc3n2)cc1)C(=O)O` (stereo not drawn) [2-{4-(4-Fluoro-phenyl)-1-[4-(quinolin-2-ylmethoxy)-phenyl]-butoxyimino}-propionic acid], 9 nM; with `C/C(=N\OC(c1ccc(OCc2ccc3ccccc3n2)cc1SC1CCCCC1)C1CCCCC1)C(=O)O` (stereo not drawn) [2-{Cyclohexyl-[2-cyclohexylsulfanyl-4-(quinolin-2-ylmethoxy)-phenyl]-methoxyimino}-propionic acid], 90 nM. For `CCCCC(O/N=C/C(=O)O)c1ccc(OCc2ccc3ccccc3n2)cc1` (stereo not drawn) [{1-[4-(Quinolin-2-ylmethoxy)-phenyl]-pentyloxyimino}-acetic acid], the IC50 was found to be 52 nM. With `C/C(=N\OC(Cc1ccc(OCc2ccc3ccccc3n2)cc1)C1CCCCC1)C(=O)O` (stereo not drawn) [2-{1-Cyclohexyl-2-[4-(quinolin-2-ylmethoxy)-phenyl]-ethoxyimino}-propionic acid] the figure was 50 nM. Turning to `C/C(=N\OC(c1ccc(OCc2ccc3ccccc3n2)c(Cl)c1)C1CCCCC1)C(=O)O` (stereo not drawn) [2-{[3-Chloro-4-(quinolin-2-ylmethoxy)-phenyl]-cyclohexyl-methoxyimino}-propionic acid], the IC50 is 27 nM.

`O=C(O)/C(CSCCO)=N/OC(c1ccc(OCc2ccc3ccccc3n2)cc1)C1CCCCC1` (stereo not drawn) [2-{Cyclohexyl-[4-(quinolin-2-ylmethoxy)-phenyl]-methoxyimino}-3-(2-hydroxy-ethylsulfanyl)-propionic acid]: the half-inhibitory concentration (IC50) is 181 nM. With `C/C(=N\OC(c1ccc(OCc2ccc3ccccc3n2)cc1Cl)C1CCCCC1)C(=O)O` (stereo not drawn) [2-{[2-Chloro-4-(quinolin-2-ylmethoxy)-phenyl]-cyclohexyl-methoxyimino}-propionic acid], the IC50 came out at 14 nM. With `O=C(O)/C=N/OC(c1ccc(OCc2cc(-c3ccccc3)on2)cc1)C1CCCCC1` (stereo not drawn) [{Cyclohexyl-[4-(5-phenyl-isoxazol-3-ylmethoxy)-phenyl]-methoxyimino}-acetic acid] the figure was 140 nM; with `CCCCC(CCCC)C(O/N=C/C(=O)O)c1ccc(OCc2ccc3ccccc3n2)cc1` (stereo not drawn) [{2-Butyl-1-[4-(quinolin-2-ylmethoxy)-phenyl]-hexyloxyimino}-acetic acid], 10 nM; with `C/C(=N\OC(c1ccc(OCc2nc3ccccc3s2)cc1)C1CCCCC1)C(=O)O` (stereo not drawn) [2-{[4-(Benzothiazol-2-ylmethoxy)-phenyl]-cyclohexyl-methoxyimino}-propionic acid (0.5H2O)], 60 nM. Under `C/C(=N\OC(CC(C)(C)c1ccccc1)c1ccc(OCc2ccc3ccccc3n2)cc1)C(=O)O` (stereo not drawn) [2-{3-Methyl-3-phenyl-1-[4-(quinolin-2-ylmethoxy)-phenyl]-butoxyimino}-propionic acid (0.25H2O)] stands 22 nM; under `C/C(=N\OCC(c1ccc(OCc2ccc3ccccc3n2)cc1)C1CCCCC1)C(=O)O` (stereo not drawn) [2-{2-Cyclohexyl-2-[4-(quinolin-2-ylmethoxy)-phenyl]-ethoxyimino}-propionic acid], 20 nM. With `O=C(O)/C=N/OC(c1ccc(OCc2csc(-c3ccc(Cl)cc3)n2)cc1)C1CCCCC1` (stereo not drawn) [({4-[2-(4-Chloro-phenyl)-thiazol-4-ylmethoxy]-phenyl}-cyclohexyl-methoxyimino)-acetic acid] the figure was 490 nM; with `O=C(O)/C=N/OCC(c1ccc(OCc2ccc3ccccc3n2)cc1)C1CCCCC1` (stereo not drawn) [{2-Cyclohexyl-2-[4-(quinolin-2-ylmethoxy)-phenyl]-ethoxyimino}-acetic acid (0.25H2O)], 47 nM. In the case of `O=C(O)CSC(CCCc1ccc(Cl)cc1)c1ccc(OCc2ccc3ccccc3n2)cc1` [L-674636], the IC50 was found to be 7 nM. On to `O=C(O)c1ccc(/C=N/OC(c2ccc(OCc3ccc4ccccc4n3)cc2)C2CCCCC2)cc1` (stereo not drawn) [4-({Cyclohexyl-[4-(quinolin-2-ylmethoxy)-phenyl]-methoxyimino}-methyl)-benzoic acid], for which the half-inhibitory concentration (IC50) turned out to be 31 nM. With `O=C(O)/C=N/OC(c1ccc(OCc2nc3cc(F)ccc3s2)cc1)C1CCCCC1` (stereo not drawn) [{Cyclohexyl-[4-(5-fluoro-benzothiazol-2-ylmethoxy)-phenyl]-methoxyimino}-acetic acid] the figure was 87 nM; with `C/C(=N\OC(Cc1ccccc1)c1ccc(OCc2ccc3ccccc3n2)cc1)C(=O)O` (stereo not drawn) [2-{2-Phenyl-1-[4-(quinolin-2-ylmethoxy)-phenyl]-ethoxyimino}-propionic acid (0.25H2O)], 30 nM; with `O=C(O)/C=N/OC(c1ccc(OCc2ccc3ccccc3n2)cc1)C1CCCC1` (stereo not drawn) [{Cyclopentyl-[4-(quinolin-2-ylmethoxy)-phenyl]-methoxyimino}-acetic acid], 30 nM. Turning to `C/C(=N\O[C@H](c1ccc(OCc2ccc3ccccc3n2)cc1)C1CCCCC1)C(=O)O` [listing 2 of 2 here], the IC50 came out at 34 nM. Consider `C=CCC(O/N=C(\C)C(=O)O)c1ccc(OCc2ccc3ccccc3n2)cc1` (stereo not drawn) [2-{1-[4-(Quinolin-2-ylmethoxy)-phenyl]-but-3-enyloxyimino}-propionic acid], for which the IC50 was found to be 142 nM.

`CCCCC(CCCC)C(O/N=C(\C)C(=O)O)c1ccc(OCc2ccc3ccccc3n2)cc1` (stereo not drawn) [2-{2-Butyl-1-[4-(quinolin-2-ylmethoxy)-phenyl]-hexyloxyimino}-propionic acid (2H2O)]: the concentration for half-maximal inhibition (IC50) was found to be 14 nM.

For `C/C(=N\OC(c1cc2ccc(OCc3ccc4ccccc4n3)cc2s1)C1CCCCC1)C(=O)O` (stereo not drawn) [2-{Cyclohexyl-[6-(quinolin-2-ylmethoxy)-benzo[b]thiophen-2-yl]-methoxyimino}-propionic acid], the IC50 is 40 nM. As to `CC(C)c1ccc(-c2csc(COc3ccc(C(O/N=C/C(=O)O)C4CCCCC4)cc3)n2)cc1` (stereo not drawn) [(Cyclohexyl-{4-[4-(4-isopropyl-phenyl)-thiazol-2-ylmethoxy]-phenyl}-methoxyimino)-acetic acid (2H2O)], the IC50 turned out to be 35 nM. Take `O=C(O)/C(Cc1ccccc1)=N/OC(c1ccc(OCc2ccc3ccccc3n2)cc1)C1CCCCC1` (stereo not drawn) [2-{Cyclohexyl-[4-(quinolin-2-ylmethoxy)-phenyl]-methoxyimino}-3-phenyl-propionic acid (H2O)]: the IC50 is 35 nM.

For the molecule `O=C(O)[C@@H](c1ccc(OCc2ccc3ccccc3n2)cc1)C1CCCC1` [(R)-Cyclopentyl-[4-(quinolin-2-ylmethoxy)-phenyl]-acetic acid], the IC50 was 60 nM. With `C/C(=N\OC(c1cc2cc(OCc3ccc4ccccc4n3)ccc2s1)C1CCCCC1)C(=O)O` (stereo not drawn) [2-{Cyclohexyl-[5-(quinolin-2-ylmethoxy)-benzo[b]thiophen-2-yl]-methoxyimino}-propionic acid] the figure was 33 nM; with `O=C(O)/C=N/OC(c1ccc(OCc2nc3cccnc3s2)cc1)C1CCCCC1` (stereo not drawn) [{Cyclohexyl-[4-(thiazolo[5,4-b]pyridin-2-ylmethoxy)-phenyl]-methoxyimino}-acetic acid], 27 nM.

Consider `O=C(O)/C=N/OC(c1ccc(OCc2ccc3ccccc3n2)cc1)C1CCCCC1` (stereo not drawn) [{Cyclohexyl-[4-(quinolin-2-ylmethoxy)-phenyl]-methoxyimino}-acetic acid], for which the IC50 came out at 17 nM.

Take `O=C(O)/C=N/OC(c1ccc(-c2ccc3ccccc3n2)cc1)C1CCCCC1` (stereo not drawn) [[Cyclohexyl-(4-quinolin-2-yl-phenyl)-methoxyimino]-acetic acid(0.25H2O)]: the IC50 was 1200 nM. Take `C/C(=N\OC(c1ccc(OCc2ccc3ccccc3n2)cc1)C1C2CC3CC(C2)CC1C3)C(=O)O` (stereo not drawn) [2-{Adamantan-2-yl-[4-(quinolin-2-ylmethoxy)-phenyl]-methoxyimino}-propionic acid]: the IC50 was 20 nM. `O=C(O)/C(Cc1ccc(O)cc1)=N/OC(c1ccc(OCc2ccc3ccccc3n2)cc1)C1CCCCC1` (stereo not drawn) [2-{Cyclohexyl-[4-(quinolin-2-ylmethoxy)-phenyl]-methoxyimino}-3-(4-hydroxy-phenyl)-propionic acid]: the IC50 turned out to be 43 nM.

Regarding `O=C(O)/C(=N/OC(c1ccc(OCc2ccc3ccccc3n2)cc1)C1CCCCC1)c1ccccc1` (stereo not drawn) [{Cyclohexyl-[4-(quinolin-2-ylmethoxy)-phenyl]-methoxyimino}-phenyl-acetic acid (0.5H2O)], the half-inhibitory concentration (IC50) came out at 31 nM. On to `O=C(O)/C=N/OC(c1ccc(OCc2ccc3ccccc3n2)cc1)C1CCCCCC1` (stereo not drawn) [{Cycloheptyl-[4-(quinolin-2-ylmethoxy)-phenyl]-methoxyimino}-acetic acid], for which the IC50 was determined as 18 nM. Under `CC/C(=N\OC(c1ccc(OCc2ccc3ccccc3n2)cc1)C1CCCCC1)C(=O)O` (stereo not drawn) [2-{Cyclohexyl-[4-(quinolin-2-ylmethoxy)-phenyl]-methoxyimino}-butyric acid (H2O)] stands 30 nM. As to `O=C(O)/C=N/OC(c1ccc(OCc2nc3ccccc3s2)cc1)C1CCCCC1` (stereo not drawn) [{[4-(Benzothiazol-2-ylmethoxy)-phenyl]-cyclohexyl-methoxyimino}-acetic acid], the IC50 was found to be 60 nM.
